The term melting point denotes the temperature of the solid-liquid transition. In turn, `Cc1ccc(C)c2[nH]c(N)nc12` gave a melting point of 164 to 170 °C.

With `CC(=O)SCCC(=O)N1c2ccccc2C(C)(C)C1C(N)=O` (configuration not stated), the melting point was 156 to 158 °C.

The compound `CC(C)c1ccccc1NC(=O)c1ccccc1SSc1ccccc1C(=O)Nc1ccccc1C(C)C` registered a melting point of 235 to 237 °C.

For `Cc1coc(N(CCCCCCN)c2nc(C)co2)n1`, the melting point turned out to be 124 °C.

`CN1CCC(OC(c2ccccc2)c2nc3cccc(N)c3[nH]2)CC1` (configuration not stated) yielded a melting point of 96.7 °C.

Take `COc1ccc(C2CSc3ccccc3NC2=O)cc1OC` (configuration not stated): the melting point was 174 °C.

`O=C1N(Cc2ccc3ncnn3c2)c2ccccc2C12COc1cc3c(cc12)OCCO3` (configuration not stated) returned a melting point of 207 to 209 °C.

Compound `COC(=O)c1ccc[nH]c1=O` yielded a melting point of 148 to 151 °C.

In the case of `CCOC(=O)C1=C(C)NC(=S)N(C(=O)OCC)C1c1ccc(OC)cc1` (configuration not stated), the melting point is 130 to 132 °C.

The compound `CC(=O)NCCC1CCc2ccn3nc(C)cc3c21` (configuration not stated) came in with a melting point of 106 to 107 °C.

Regarding `CCOC(=O)N1CCC(NC(=O)c2ccc(Cl)c(Cl)c2)C12CCCCC2` (configuration not stated), the melting point lay within 153 to 155 °C.

On to `O=C(Nc1ccncn1)Nc1cccc2c1C1CCCCN1C2=O` (configuration not stated), for which the melting point was 218 °C.

As for `COc1ccc(-c2nc(C)c(Br)[nH]2)cc1`, the melting point lay within 179 to 184 °C.

`CCOCc1cc2c(N)cccc2cn1` returned a melting point of 95 °C.

The compound `O=C(Oc1ccccc1N1c2ccccc2Sc2ccccc21)c1ccccc1` showed a melting point of 144 to 148 °C.

In turn, `CC(Cl)C(=O)c1ccc2c(c1)CCC(=O)N2` (configuration not stated) displayed a melting point of 205 to 206 °C.

The compound `CC(C)(C)[C@H]1CC[C@@H](Nc2ncnc(I)c2Cl)CC1` came in with a melting point of 89 to 90 °C.

Turning to `COc1ccc2c(ncn2C(=O)OC(C)(C)C)c1CBr`, the melting point is 127 to 129 °C.

`Nc1c(Cl)cc(C2=NNC(=O)Cc3cc4c(cc32)OCO4)cc1Cl` yielded a melting point of 149 to 151 °C.

As to `COC(=O)c1ccc(C(=O)O)cc1C(=O)OC`, the melting point was in the range of 168 to 169 °C.

Consider `NC(=NCC(F)(F)F)Nc1ccnc(SCCCC2=NCCN2)n1`, for which the melting point was 184 to 186 °C.

For `COC(=O)c1ncccc1SCc1ccc(OC)cc1`, the melting point lay within 99 to 100 °C.

Consider `O=c1c(Br)c(OCc2ccc(F)c(F)c2)ccn1Cc1cccc(F)c1`, for which the melting point was 172 to 174 °C.

The compound `CC(=O)Nc1nc(N)nc(-c2ccc(Oc3ccccc3)cc2)n1` returned a melting point of over 260 °C.

The compound `CCCCCCCCCCCCCCCCCCCCCCOS(=O)(=O)c1ccc(Cl)cc1` showed a melting point of 74 to 75 °C.

In the case of `O=C(O)c1cc(Cl)cc([N+](=O)[O-])c1NCc1ccccc1Cl`, the melting point was in the range of 160 to 161 °C.

As to `C=CCC(NC(=O)c1ccc(OC)cc1)C(=O)O` (configuration not stated), the melting point lay within 121 to 124 °C.

`O=c1ncc(I)cn1COCc1ccc(Cl)cc1` returned a melting point of 168 °C.

`CC1(C)OC(=O)C(=Cc2ccc(Br)s2)C1=O` displayed a melting point of 173 to 175 °C.

As to `Nc1c(Oc2ccc(F)c(C(F)(F)F)c2)nc(Br)nc1Oc1ccc(F)c(C(F)(F)F)c1`, the melting point lay within 184 to 186 °C.

As for `CSc1cccc(COCCCn2ccnc2)c1NC(=O)CC1c2ccccc2Oc2ccccc21`, the melting point is 176 to 177 °C.

In the case of `CCNC(=O)c1ccccc1N(C)C(C)(C)C`, the melting point was in the range of 45 to 48 °C.

The compound `Nc1nc(F)c(OC(F)F)c(Cl)n1` displayed a melting point of 77 to 80 °C.

`OP(O)C(C=Cc1ccccc1)NC(c1ccccc1)c1ccccc1` (configuration not stated): the melting point lay in the range of 202 to 203 °C.

As to `CCn1cnc(/C=C/c2cn(-c3ccccc3)nc2OCc2ccc(OCc3nc(-c4ccc(CC(=O)O)cc4)oc3C)c(OC)c2)c1`, the melting point was in the range of 194 to 196 °C.

As for `COc1ccc(-c2c(-c3ccc(S(C)(=O)=O)cc3)[nH]c3ccccc23)cc1`, the melting point is 218 to 220 °C.

In the case of `COC(=O)c1cc(C23CC4CC(CC(C4)C2)C3)c(OC)cc1F`, the melting point fell in the range of 82 to 88 °C.

Values taken from a melting point compilation (Tetko et al.; mined from patent text by program, amines drawn as free bases though some values may be those of a salt).
